Tested on: 377384-186-R-J1-PDC complex spheroid viability
Assay: Anticancer human tumor 377384-186-R-J1-PDC patient-derived pancreatic carcinoma cell line growth inhibition [RAS]
Details: for IC50: curve of first compound; for viability, T/C: stronger effect = lower value
In short: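 Multi-cell-type spheroids: tumor cells plus HUVEC endothelial cells and mesenchymal stem cells. RAS-pathway inhibitors were combined with targeted agents, each dosed in half-log steps down from clinical Cmax, or from 10 microM when Cmax was unknown.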

[1] = second compound 0.0316 µM, first compound 0.0316 µM
[2] = second compound 0.0316 µM, first compound 0.1 µM
[3] = second compound 0.0316 µM, first compound 0.316 µM
[4] = second compound 0.0316 µM, first compound 1 µM
[5] = second compound 0.0316 µM, first compound 3.16 µM
[6] = second compound 0.0316 µM, first compound 10 µM
[7] = second compound 0.1 µM, first compound 0.0316 µM
[8] = second compound 0.1 µM, first compound 0.1 µM
[9] = second compound 0.1 µM, first compound 0.316 µM
[10] = second compound 0.1 µM, first compound 1 µM
[11] = second compound 0.1 µM, first compound 3.16 µM
[12] = second compound 0.1 µM, first compound 10 µM
[13] = second compound 0.316 µM, first compound 0.0316 µM
[14] = second compound 0.316 µM, first compound 0.1 µM
[15] = second compound 0.316 µM, first compound 0.316 µM
[16] = second compound 0.316 µM, first compound 1 µM
[17] = second compound 0.316 µM, first compound 3.16 µM
[18] = second compound 0.316 µM, first compound 10 µM
[19] = second compound 1 µM, first compound 0.0316 µM
[20] = second compound 1 µM, first compound 0.1 µM
[21] = second compound 1 µM, first compound 0.316 µM
[22] = second compound 1 µM, first compound 1 µM
[23] = second compound 1 µM, first compound 3.16 µM
[24] = second compound 1 µM, first compound 10 µM
[25] = second compound 3.16 µM, first compound 0.0316 µM
[26] = second compound 3.16 µM, first compound 0.1 µM
[27] = second compound 3.16 µM, first compound 0.316 µM
[28] = second compound 3.16 µM, first compound 1 µM
[29] = second compound 3.16 µM, first compound 3.16 µM
[30] = second compound 3.16 µM, first compound 10 µM
[31] = second compound 10 µM, first compound 0.0316 µM
[32] = second compound 10 µM, first compound 0.1 µM
[33] = second compound 10 µM, first compound 0.316 µM
[34] = second compound 10 µM, first compound 1 µM
[35] = second compound 10 µM, first compound 3.16 µM
[36] = second compound 10 µM, first compound 10 µM
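Further: spheroids exposed to compounds for seven days before readout.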

For CC(=O)OC12COC1CC(O)C1(C)C(=O)C(O)C3=C(C)C(OC(=O)C(O)C(NC(=O)OC(C)(C)C)c4ccccc4)CC(O)(C(OC(=O)c4ccccc4)C21)C3(C)C (stereo unspecified) + CCn1c(-c2cc(N3CCN(C)CC3)cnc2C(C)OC)c2c3cc(ccc31)-c1csc(n1)CC(NC(=O)C1CC1C)C(=O)N1CCCC(N1)C(=O)OCC(C)(C)C2, the IC50 (second compound 0.000949 µM) was < 31.6 nM, the IC50 (second compound 0.003 µM) was < 31.6 nM and the IC50 (second compound 0.00949 µM) was < 31.6 nM. For the same compound, the IC50 (second compound 0.03 µM) was < 31.6 nM, the IC50 (second compound 0.0949 µM) was < 31.6 nM and the IC50 (second compound 0.3 µM) was < 31.6 nM. It also gave a viability, T/C (second compound 0.000949 µM, first compound 0.0316 µM) of 3.43%, a viability, T/C (second compound 0.000949 µM, first compound 0.1 µM) of 4.27% and a viability, T/C (second compound 0.000949 µM, first compound 0.316 µM) of 3.99%. The viability, T/C (second compound 0.000949 µM, first compound 1 µM) was 4.95%, the viability, T/C (second compound 0.000949 µM, first compound 3.16 µM) was 5.23% and the viability, T/C (second compound 0.000949 µM, first compound 10 µM) was 5.38%. The viability, T/C (second compound 0.003 µM, first compound 0.0316 µM) was 2.96%, the viability, T/C (second compound 0.003 µM, first compound 0.1 µM) was 1.47% and the viability, T/C (second compound 0.003 µM, first compound 0.316 µM) was 2.97%. For the same compound, the viability, T/C (second compound 0.003 µM, first compound 1 µM) was 2.21%, the viability, T/C (second compound 0.003 µM, first compound 3.16 µM) was 2.97% and the viability, T/C (second compound 0.003 µM, first compound 10 µM) was 2.38%. It also gave a viability, T/C (second compound 0.00949 µM, first compound 0.0316 µM) of 1.88%, a viability, T/C (second compound 0.00949 µM, first compound 0.1 µM) of 2.6% and a viability, T/C (second compound 0.00949 µM, first compound 0.316 µM) of 2%. For the same compound, the viability, T/C (second compound 0.00949 µM, first compound 1 µM) was 2.25%, the viability, T/C (second compound 0.00949 µM, first compound 3.16 µM) was 2.05% and the viability, T/C (second compound 0.00949 µM, first compound 10 µM) was 2.33%. For the same compound, the viability, T/C (second compound 0.03 µM, first compound 0.0316 µM) was 1.57%, the viability, T/C (second compound 0.03 µM, first compound 0.1 µM) was 1.84% and the viability, T/C (second compound 0.03 µM, first compound 0.316 µM) was 1.46%. For the same compound, the viability, T/C (second compound 0.03 µM, first compound 1 µM) was 1.65%, the viability, T/C (second compound 0.03 µM, first compound 3.16 µM) was 2.16% and the viability, T/C (second compound 0.03 µM, first compound 10 µM) was 1.64%. For the same compound, the viability, T/C (second compound 0.0949 µM, first compound 0.0316 µM) was 1.97%, the viability, T/C (second compound 0.0949 µM, first compound 0.1 µM) was 1.63% and the viability, T/C (second compound 0.0949 µM, first compound 0.316 µM) was 1.57%. The viability, T/C (second compound 0.0949 µM, first compound 1 µM) was 1.56%, the viability, T/C (second compound 0.0949 µM, first compound 3.16 µM) was 1.78% and the viability, T/C (second compound 0.0949 µM, first compound 10 µM) was 1.2%. The viability, T/C (second compound 0.3 µM, first compound 0.0316 µM) was 1.96%, the viability, T/C (second compound 0.3 µM, first compound 0.1 µM) was 1.22% and the viability, T/C (second compound 0.3 µM, first compound 0.316 µM) was 2.82%. It also gave a viability, T/C (second compound 0.3 µM, first compound 1 µM) of 1.84%, a viability, T/C (second compound 0.3 µM, first compound 3.16 µM) of 1.23% and a viability, T/C (second compound 0.3 µM, first compound 10 µM) of 1.25%.

With CC(=O)OC12COC1CC(O)C1(C)C(=O)C(O)C3=C(C)C(OC(=O)C(O)C(NC(=O)OC(C)(C)C)c4ccccc4)CC(O)(C(OC(=O)c4ccccc4)C21)C3(C)C (stereo unspecified) + C#Cc1c(F)ccc2cc(O)cc(-c3ncc4c(N5CC6CCC(C5)N6)nc(OCC56CCCN5CC(F)C6)nc4c3F)c12 the IC50 (second compound 0.0316 µM) was < 31.6 nM, the IC50 (second compound 0.1 µM) was < 31.6 nM and the IC50 (second compound 0.316 µM) was < 31.6 nM. The IC50 (second compound 1 µM) was < 31.6 nM, the IC50 (second compound 3.16 µM) was < 31.6 nM and the IC50 (second compound 10 µM) was < 31.6 nM. It also gave a viability, T/C [1] of 2.38%, a viability, T/C [2] of 3.09% and a viability, T/C [3] of 3.14%. It also gave a viability, T/C [4] of 3.55%, a viability, T/C [5] of 3.94% and a viability, T/C [6] of 3.06%. It also gave a viability, T/C [7] of 2.23%, a viability, T/C [8] of 2.57% and a viability, T/C [9] of 2.12%. The viability, T/C [10] was 1.89%, the viability, T/C [11] was 1.87% and the viability, T/C [12] was 3.18%. It also gave a viability, T/C [13] of 2.05%, a viability, T/C [14] of 2.18% and a viability, T/C [15] of 2%. The viability, T/C [16] was 2.01%, the viability, T/C [17] was 2.08% and the viability, T/C [18] was 1.78%. For the same compound, the viability, T/C [19] was 1.73%, the viability, T/C [20] was 1.59% and the viability, T/C [21] was 1.53%. It also gave a viability, T/C [22] of 1.76%, a viability, T/C [23] of 1.09% and a viability, T/C [24] of 1.72%. For the same compound, the viability, T/C [25] was 1.58%, the viability, T/C [26] was 1.73% and the viability, T/C [27] was 1.51%. The viability, T/C [28] was 1.74%, the viability, T/C [29] was 1.58% and the viability, T/C [30] was 1.95%. It also gave a viability, T/C [31] of 0.77%, a viability, T/C [32] of 0.5% and a viability, T/C [33] of 0.68%. For the same compound, the viability, T/C [34] was 0.75%, the viability, T/C [35] was 0.42% and the viability, T/C [36] was 0.94%.

C[C@@H](NC(=O)c1ncnc(N)c1Cl)c1ncc(C(=O)Nc2cc(C(F)(F)F)c(Cl)cn2)s1 + C#Cc1c(F)ccc2cc(O)cc(-c3ncc4c(N5CC6CCC(C5)N6)nc(OCC56CCCN5CC(F)C6)nc4c3F)c12 was tested, and the IC50 (second compound 0.0316 µM) was < 31.6 nM, the IC50 (second compound 0.1 µM) was < 31.6 nM and the IC50 (second compound 0.316 µM) was < 31.6 nM. For the same compound, the IC50 (second compound 1 µM) was < 31.6 nM, the IC50 (second compound 3.16 µM) was < 31.6 nM and the IC50 (second compound 10 µM) was < 31.6 nM. For the same compound, the viability, T/C [1] was 30.5%, the viability, T/C [2] was 27.9% and the viability, T/C [3] was 30%. It also gave a viability, T/C [4] of 31.1%, a viability, T/C [5] of 30.3% and a viability, T/C [6] of 27.2%. It also gave a viability, T/C [7] of 14.6%, a viability, T/C [8] of 16.2% and a viability, T/C [9] of 14.1%. It also gave a viability, T/C [10] of 19.3%, a viability, T/C [11] of 16.2% and a viability, T/C [12] of 14.4%. It also gave a viability, T/C [13] of 7.93%, a viability, T/C [14] of 8.44% and a viability, T/C [15] of 10.6%. The viability, T/C [16] was 9.52%, the viability, T/C [17] was 11.1% and the viability, T/C [18] was 10.5%. It also gave a viability, T/C [19] of 4.26%, a viability, T/C [20] of 5.19% and a viability, T/C [21] of 5.9%. It also gave a viability, T/C [22] of 8.08%, a viability, T/C [23] of 8.4% and a viability, T/C [24] of 6.52%. The viability, T/C [25] was 3.23%, the viability, T/C [26] was 2.84% and the viability, T/C [27] was 2.97%. The viability, T/C [28] was 3.77%, the viability, T/C [29] was 4.25% and the viability, T/C [30] was 4.87%. For the same compound, the viability, T/C [31] was 2.04%, the viability, T/C [32] was 1.21% and the viability, T/C [33] was 1.76%. It also gave a viability, T/C [34] of 2.5%, a viability, T/C [35] of 3.8% and a viability, T/C [36] of 1.16%.

— PubChem BioAssay AID2060903 (Molecular Pharmacology Branch, DTP, NCI, 2025)
